Source: PubChem BioAssay AID1259408 (Genetic Toxicology Data Bank (GENE-TOX), 2018)
The source made the active and inactive calls. No rule for the calls is given here.

Tested on: GENE-TOX genotoxicity assays, various organisms and cells
Assay: GENE-TOX mutagenicity studies
Conditions: for call: Assay Type: In vivo carcinogenicity studies
Description: GENE-TOX provides genetic toxicology (mutagenicity) test data from expert peer review of open scientific literature for more than 3,000 chemicals from the United States Environmental Protection Agency (EPA). GENE-TOX was established to select assay systems for evaluation, review data in the scientific literature, and recommend proper testing protocols and evaluation procedures for these systems.
GENE-TOX covers the years 1991 - 1998. It is no longer updated.
This is an archive assay for GENE-TOX mutagenicity studies.

[1] = Species/Cell Type: Nonhuman, Assay Code: CCG+L, Evaluation Type: Evaluation A (Pre-1980)
[2] = Species/Cell Type: Nonhuman, Assay Type: Sister-chromatid exchange (SCE) in vitro, Assay Code: SC2+D, Dose Response: With dose response, Evaluation Type: Evaluation B (Post-1980)
[3] = Species/Cell Type: Salmonella typhimurium (one or more of the five standard strains: TA98, TA100, TA1535, TA1537, and TA1538), Assay Type: Histidine reverse gene mutation, Ames assay, Assay Code: SAL+*, Activation: With metabolic activation, Evaluation Type: Evaluation A (Pre-1980)
[4] = Species/Cell Type: Drosophila melanogaster, Assay Type: Sex-linked recessive lethal gene mutation, Assay Code: SRLT, Evaluation Type: Evaluation A (Pre-1980)
[5] = Species/Cell Type: Human lymphocytes, Assay Type: Sister-chromatid exchange (SCE) in vitro, Assay Code: SCL+D, Dose Response: With dose response, Evaluation Type: Evaluation B (Post-1980)
[6] = Species/Cell Type: Human, Assay Type: Sister-chromatid exchange (SCE) in vitro, Assay Code: SC1+D, Dose Response: With dose response, Evaluation Type: Evaluation B (Post-1980)
[7] = Species/Cell Type: Salmonella typhimurium (one or more of the five standard strains: TA98, TA100, TA1535, TA1537, and TA1538), Assay Type: Histidine reverse gene mutation, Ames assay, Assay Code: SALT, Evaluation Type: Evaluation A (Pre-1980)
[8] = Species/Cell Type: Salmonella typhimurium (one or more of the five standard strains: TA98, TA100, TA1535, TA1537, and TA1538), Assay Type: Histidine reverse gene mutation, Ames assay, Assay Code: SAL-, Evaluation Type: Evaluation A (Pre-1980)
[9] = Species/Cell Type: Fischer rat embryo (RLV/1706) cells, Assay Type: Cell transformation, viral enhanced, Assay Code: CTR+, Evaluation Type: Evaluation A (Pre-1980)
[10] = Species/Cell Type: Mouse, Sex: Male, Assay Type: Sperm morphology, Assay Code: SPI-, Evaluation Type: Evaluation A (Pre-1980)
[11] = Species/Cell Type: Nonhuman, Assay Code: CCGT, Evaluation Type: Evaluation A (Pre-1980)
[12] = Species/Cell Type: Human lymphocytes, Assay Type: Sister-chromatid exchange (SCE) in vivo, Assay Code: SCY+, Evaluation Type: Evaluation B (Post-1980)
[13] = Species/Cell Type: Mammalian polychromatic erythrocytes, Assay Type: Micronucleus test, chromosome aberrations, Assay Code: MNTT, Evaluation Type: Evaluation B (Post-1980)
[14] = Species/Cell Type: Escherichia coli polA (W3110 vs P3478), Assay Type: Rec-assay, DNA effects (bacterial DNA repair), Assay Code: RE2+, Evaluation Type: Evaluation A (Pre-1980)

In the case of O[C@@H]1C=Cc2c(ccc3cc4ccccc4cc23)[C@H]1O, the mutagenic call (Species/Cell Type: Chinese hamster lung (V79) cells, Assay Type: Forward gene mutation at the HPRT or ouabain locus, Assay Code: V79+, Evaluation Type: Evaluation A (Pre-1980)) is reported as “active; positive”, the call [1] is reported as “active; positive” and the mutagenic call [2] is reported as “active; positive”. For the same compound, the mutagenic call [3] was “active; positive”.

CN(C)c1ccc2nc3c(C(=O)O)cc(=O)c(O)c-3oc2c1 was tested, and the mutagenic call [4] was “no conclusion”.

With Cn1cccc1CO the mutagenic call [5] was “active; positive” and the mutagenic call [6] was “active; positive”.

For Cc1cccc2c1ccc1c3c(ccc12)C(=O)CC3, the mutagenic call [7] was “no conclusion”.

In the case of CCN(Cc1cccc(S(=O)(=O)[O-])c1)c1ccc(C(=C2C=CC(=[N+](C)C)C=C2)c2ccc(N(CC)Cc3cccc(S(=O)(=O)O)c3)cc2)cc1, the mutagenic call (Species/Cell Type: Bacillus subtilis (H17 vs M45), Assay Type: Rec-assay, spot test, DNA effects (bacterial DNA repair), Assay Code: REWT, Evaluation Type: Evaluation A (Pre-1980)) is reported as “no conclusion”, the mutagenic call (Species/Cell Type: Bacillus subtilis (H17 vs M45T), Assay Type: Rec-assay, spot test, DNA effects (bacterial DNA repair), Assay Code: REXT, Evaluation Type: Evaluation A (Pre-1980)) is reported as “no conclusion” and the call (Species/Cell Type: Nonhuman, Assay Code: CCG+, Evaluation Type: Evaluation A (Pre-1980)) is reported as “active; positive”. For the same compound, the mutagenic call [8] was “inactive; negative”.

CC(Cl)(Cl)Cl was tested, and the mutagenic call [9] was “active; positive”, the mutagenic call (Species/Cell Type: Mammalian polychromatic erythrocytes, Assay Type: Micronucleus test, chromosome aberrations, Assay Code: MNTT, Evaluation Type: Evaluation A (Pre-1980)) was “no conclusion” and the mutagenic call [10] was “inactive; negative”. For the same compound, the call [11] was “no conclusion” and the mutagenic call (Species/Cell Type: Nonhuman, Assay Type: Sister-chromatid exchange (SCE) in vitro, Assay Code: SC2+, Evaluation Type: Evaluation B (Post-1980)) was “active; positive”.

For CN1C(C(=O)Nc2ccccn2)=C(O)c2ccccc2S1(=O)=O, the mutagenic call [12] was “active; positive”.

Nc1ccc(OCCO)c(N)c1 was tested, and the mutagenic call [13] was “no conclusion”.

ClC(Cl)(Cl)C(Cl)(Cl)Cl was tested, and the call [1] was “active; positive”, the mutagenic call (Species/Cell Type: Saccharomyces cerevisiae, Assay Type: Mitotic recombination or gene conversion, Assay Code: YEH-, Evaluation Type: Evaluation A (Pre-1980)) was “inactive; negative” and the mutagenic call [8] was “inactive; negative”.

In the case of CC(C)NCC(O)COc1cccc2[nH]ccc12 (stereo not given), the mutagenic call [13] is reported as “no conclusion”.

For C/C=C/c1ccccc1, the mutagenic call [5] was “active; positive” and the mutagenic call [6] was “active; positive”.

O=C(O)c1ccc(C(=O)O)cc1 was tested, and the mutagenic call (Species/Cell Type: Syrian hamster embryo (SA7/SHE) cells, Assay Type: Cell transformation, viral enhanced, Assay Code: CT7-, Evaluation Type: Evaluation A (Pre-1980)) was “inactive; negative”.

For O=P(N1CC1)(N1CC1)N1CC1, the mutagenic call (Species/Cell Type: Drosophila melanogaster, Assay Type: Sex-linked recessive lethal gene mutation, Assay Code: SRL+, Evaluation Type: Evaluation A (Pre-1980)) was “active; positive”, the mutagenic call (Species/Cell Type: Drosophila melanogaster, Sex: Male, Assay Type: Heritable translocation test, chromosome aberrations, Assay Code: DHT+, Evaluation Type: Evaluation A (Pre-1980)) was “active; positive” and the mutagenic call (Species/Cell Type: Human lymphocytes or leukocytes, Assay Type: Chromosome aberrations in vitro, Assay Code: CY7+, Evaluation Type: Evaluation A (Pre-1980)) was “active; positive”. The mutagenic call [5] was “active; positive”, the mutagenic call [6] was “active; positive” and the mutagenic call (Species/Cell Type: Mammalian germ cells, Sex: Male, Assay Type: Chromosome aberrations in vivo, Assay Code: CY9T, Evaluation Type: Evaluation A (Pre-1980)) was “no conclusion”. The mutagenic call (Species/Cell Type: Mouse, Sex: Male, Assay Type: Heritable translocation test, chromosome aberrations, Assay Code: HTT+, Evaluation Type: Evaluation A (Pre-1980)) was “active; positive”, the mutagenic call (Species/Cell Type: Neurospora crassa, Assay Type: Forward gene mutation, Assay Code: NEF+, Evaluation Type: Evaluation A (Pre-1980)) was “active; positive” and the mutagenic call (Species/Cell Type: Nonhuman, Assay Type: Chromosome aberrations in vitro, Assay Code: CY&+, Evaluation Type: Evaluation A (Pre-1980)) was “active; positive”. For the same compound, the call [11] was “no conclusion”, the mutagenic call [2] was “active; positive” and the mutagenic call (Species/Cell Type: Rodents, Sex: Male, Assay Type: Dominant lethal test, Assay Code: DLT+, Evaluation Type: Evaluation A (Pre-1980)) was “active; positive”. The mutagenic call (Species/Cell Type: Schizosaccharomyces pombe, Assay Type: Reverse gene mutation, Assay Code: YEZ+, Evaluation Type: Evaluation A (Pre-1980)) was “active; positive” and the mutagenic call (Species/Cell Type: Vicia faba, Assay Type: Chromosome aberrations, Assay Code: VIC+, Evaluation Type: Evaluation A (Pre-1980)) was “active; positive”.

O=C(NO)NO was tested, and the mutagenic call (Species/Cell Type: Drosophila melanogaster, Assay Type: Aneuploidy, sex chromosome gain, chromosome aberrations, Assay Code: DAGT, Evaluation Type: Evaluation A (Pre-1980)) was “no conclusion”, the mutagenic call (Species/Cell Type: Drosophila melanogaster, Assay Type: Aneuploidy, whole sex chromosome loss, chromosome aberrations, Assay Code: DAC-M, Evaluation Type: Evaluation A (Pre-1980)) was “inactive; negative” and the mutagenic call [4] was “no conclusion”.

In the case of CCN1CC[C@@H]2[C@@H](c3ccc(C)cc3)c3cc(C)ccc3[C@@H]2C1, the mutagenic call [10] is reported as “inactive; negative”, the mutagenic call (Species/Cell Type: Rodents, Sex: Male, Assay Type: Dominant lethal test, Assay Code: DLT-, Evaluation Type: Evaluation A (Pre-1980)) is reported as “inactive; negative” and the mutagenic call [7] is reported as “no conclusion”.

c1csc(-c2ccc(-c3cccs3)s2)c1 was tested, and the mutagenic call (Species/Cell Type: Nonhuman, Assay Type: Sister-chromatid exchange (SCE) in vitro, Assay Code: SC2T, Evaluation Type: Evaluation B (Post-1980)) was “no conclusion”.

For CCC1CO1 (stereo not given), the mutagenic call [14] was “active; positive”, the mutagenic call (Species/Cell Type: Escherichia coli polA (W3119 vs P3478), Assay Type: Rec-assay, DNA effects (bacterial DNA repair), Assay Code: RE1+, Evaluation Type: Evaluation A (Pre-1980)) was “active; positive” and the mutagenic call [9] was “active; positive”. The mutagenic call (Species/Cell Type: Mouse (BALB/c-3T3) cells, Assay Type: Cell transformation, Assay Code: CTB-, Evaluation Type: Evaluation A (Pre-1980)) was “inactive; negative”, the mutagenic call (Species/Cell Type: Neurospora crassa, Assay Type: Reverse gene mutation, Assay Code: NER+, Evaluation Type: Evaluation A (Pre-1980)) was “active; positive” and the call [11] was “no conclusion”. The mutagenic call (Species/Cell Type: Saccharomyces cerevisiae, Assay Type: Mitotic recombination or gene conversion, Assay Code: YEH+, Evaluation Type: Evaluation A (Pre-1980)) was “active; positive”, the mutagenic call (Species/Cell Type: Salmonella typhimurium (one or more of the five standard strains: TA98, TA100, TA1535, TA1537, and TA1538), Assay Type: Histidine reverse gene mutation, Ames assay, Assay Code: SAL+, Evaluation Type: Evaluation A (Pre-1980)) was “active; positive” and the mutagenic call (Species/Cell Type: Syrian hamster embryo (SHE) cells, Assay Type: Cell transformation, clonal assay, Assay Code: CTC+, Evaluation Type: Evaluation A (Pre-1980)) was “active; positive”.

In the case of O[C@@H]1c2ccccc2-c2cc3ccc4ccccc4c3cc2[C@H]1O, the mutagenic call (Species/Cell Type: Chinese hamster lung (V79) cells, Assay Type: Forward gene mutation at the HPRT or ouabain locus, Assay Code: V79-, Evaluation Type: Evaluation A (Pre-1980)) is reported as “inactive; negative”, the mutagenic call (Species/Cell Type: Mouse prostate cells, Assay Type: Cell transformation, Assay Code: CTM-, Evaluation Type: Evaluation A (Pre-1980)) is reported as “inactive; negative” and the call [11] is reported as “no conclusion”. For the same compound, the mutagenic call [3] was “active; positive” and the mutagenic call (Species/Cell Type: Syrian hamster embryo (SHE) cells, Assay Type: Cell transformation, clonal assay, Assay Code: CTCT, Evaluation Type: Evaluation A (Pre-1980)) was “no conclusion”.

For Cc1ccc2ncccc2c1, the mutagenic call [3] was “active; positive”.

In the case of Cc1c2ccncc2c(C)c2c1[nH]c1ccc(N)cc12, the mutagenic call (Species/Cell Type: Chinese hamster ovary (CHO) cells, Assay Type: Forward gene mutation at the HPRT locus, Assay Code: CHO+, Evaluation Type: Evaluation B (Post-1980)) is reported as “active; positive”.

O=C1c2ccccc2C(=O)c2c(O[C@@H]3O[C@H](CO)[C@@H](O)[C@H](O)[C@H]3O)ccc(O)c21 was tested, and the mutagenic call [3] was “active; positive”.

O=S=O was tested, and the mutagenic call [12] was “active; positive”, the mutagenic call (Species/Cell Type: Tradescantia species, Assay Type: Chromosome aberrations, Assay Code: TRC+, Evaluation Type: Evaluation A (Pre-1980)) was “active; positive” and the mutagenic call (Species/Cell Type: Tradescantia species, Assay Type: Gene mutation, Assay Code: TRM+D, Dose Response: With dose response, Evaluation Type: Evaluation A (Pre-1980)) was “active; positive”.

In the case of CN(CC(=O)OC[C@H](N)C(=O)O)N=O, the mutagenic call [14] is reported as “active; positive” and the mutagenic call (Species/Cell Type: Escherichia coli polA (W3119 vs P3478), Assay Type: Rec-assay, DNA effects (bacterial DNA repair), Assay Code: RE1T, Evaluation Type: Evaluation A (Pre-1980)) is reported as “no conclusion”.

With O[C@H]1C=Cc2cc3c4ccccc4c4ccccc4c3cc2[C@@H]1O the mutagenic call [2] was “active; positive”.
